According to ChEMBL document CHEMBL1201862, “PubChem BioAssay data set” (2004):
Calls of active or inactive are those of the source.

What was measured:
[1] = biological target: T1, Adenosylmethionine-8-amino-7-oxononanoate aminotransferase (Mycobacterium tuberculosis, UniProt P9WQ81); assay: Mycobacterium tuberculosis BioA enzyme inhibitor Measured in Biochemical System Using Plate Reader - 2163-02_Inhibitor_Dose_CherryPick_Activity.; assay type: functional, Mycobacterium tuberculosis UT205
T1 sequence (P9WQ81 whole entry): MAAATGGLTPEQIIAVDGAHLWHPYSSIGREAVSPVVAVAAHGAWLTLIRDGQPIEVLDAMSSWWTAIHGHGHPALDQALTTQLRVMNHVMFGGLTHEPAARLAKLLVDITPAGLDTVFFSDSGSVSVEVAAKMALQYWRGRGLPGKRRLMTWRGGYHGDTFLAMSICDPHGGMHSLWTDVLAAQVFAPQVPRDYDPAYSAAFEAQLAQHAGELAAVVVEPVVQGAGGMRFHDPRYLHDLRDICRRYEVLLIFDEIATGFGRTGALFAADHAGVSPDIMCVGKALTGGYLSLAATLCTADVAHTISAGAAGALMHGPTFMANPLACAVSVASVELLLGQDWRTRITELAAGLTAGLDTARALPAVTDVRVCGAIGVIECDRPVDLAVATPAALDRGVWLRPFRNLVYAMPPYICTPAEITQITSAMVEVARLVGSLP

[2] = AlphaScreen signal interference compounds, dose response, artefact control for ARNT-TACC3 interaction inhibitor project, biochemical, luminescence, cherry-pick (AID 651705); assay type: functional;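 further: AlphaScreen bead proximity signal that flags compounds interfering with the detection technology; potency reflects signal decrease which marks the compound as an assay artifact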
[3] = A Cell Based Secondary Assay To Explore Cytotoxicity of Compounds that Sensitize Mycobacterium Tuberculosis to Beta-Lactam Antibiotics.; assay type: functional
[4] = nonselective inhibitors of cellular cAMP signaling, dose response, counter-screen for MC4R biased antagonist project, cell-based, TR-FRET cAMP detection (AID 602305); assay type: functional;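 further: U2OS cells stimulated with forskolin near its EC80 as the cAMP inducer; potency is for inhibition of forskolin-stimulated cAMP signaling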
Melanocortin receptor 4 = Melanocortin receptor 4 (Homo sapiens, UniProt P32245); assay: MC4R antagonist potency on cAMP, dose response, cell-based, TR-FRET, biased antagonists (AID 602298); assay type: functional;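 further: antagonist potency against agonist-stimulated cAMP production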
Melanocortin receptor 4, sequence (P32245 whole entry): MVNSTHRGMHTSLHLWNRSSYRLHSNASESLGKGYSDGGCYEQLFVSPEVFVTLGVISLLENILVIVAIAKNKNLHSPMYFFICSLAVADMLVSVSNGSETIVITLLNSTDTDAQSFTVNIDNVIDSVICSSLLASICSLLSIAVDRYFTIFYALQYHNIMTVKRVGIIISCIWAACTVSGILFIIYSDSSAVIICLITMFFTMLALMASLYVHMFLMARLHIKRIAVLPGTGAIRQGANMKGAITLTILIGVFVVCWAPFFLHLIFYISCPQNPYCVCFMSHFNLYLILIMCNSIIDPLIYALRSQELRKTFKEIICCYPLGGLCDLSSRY

[5] = biological target: T2, High affinity choline transporter 1 (Homo sapiens, UniProt Q9GZV3); assay: CHT inhibitors, dose response, cell-based, 5-point CRC, membrane potential dye (AID 504840); assay type: functional
T2 sequence (Q9GZV3 whole entry): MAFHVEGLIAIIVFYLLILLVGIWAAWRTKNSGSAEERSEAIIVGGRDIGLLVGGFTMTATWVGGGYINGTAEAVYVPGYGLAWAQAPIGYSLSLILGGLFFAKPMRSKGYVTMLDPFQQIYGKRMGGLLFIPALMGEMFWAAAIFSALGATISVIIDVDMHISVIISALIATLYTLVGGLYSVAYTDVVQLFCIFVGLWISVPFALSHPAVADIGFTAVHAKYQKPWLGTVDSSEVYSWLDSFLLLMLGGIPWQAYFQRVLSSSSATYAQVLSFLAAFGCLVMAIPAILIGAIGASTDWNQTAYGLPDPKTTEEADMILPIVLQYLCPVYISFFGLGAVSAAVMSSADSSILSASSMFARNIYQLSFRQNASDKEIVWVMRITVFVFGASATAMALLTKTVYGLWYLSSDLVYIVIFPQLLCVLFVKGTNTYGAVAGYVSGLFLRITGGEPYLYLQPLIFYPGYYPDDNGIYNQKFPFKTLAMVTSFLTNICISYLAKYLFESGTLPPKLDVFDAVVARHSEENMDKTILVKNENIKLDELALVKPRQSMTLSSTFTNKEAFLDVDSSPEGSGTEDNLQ

[6] = biological target: T2, High affinity choline transporter 1; assay: CHT inhibitors, dose response, cell-based, 10-point CRC, membrane potential dye (AID 588401); assay type: functional;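 further: membrane potential dye fluorescence of choline-evoked depolarization via CHT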
[7] = biological target: T3, Microphthalmia-associated transcription factor (Homo sapiens, UniProt O75030); assay: TRPM1 promoter luciferase signal decrease, dose response, MITF inhibitor project, cell-based, SK-MEL-5, cherry-picked, set 3 (AID 493073); assay type: functional
T3 sequence (O75030 whole entry): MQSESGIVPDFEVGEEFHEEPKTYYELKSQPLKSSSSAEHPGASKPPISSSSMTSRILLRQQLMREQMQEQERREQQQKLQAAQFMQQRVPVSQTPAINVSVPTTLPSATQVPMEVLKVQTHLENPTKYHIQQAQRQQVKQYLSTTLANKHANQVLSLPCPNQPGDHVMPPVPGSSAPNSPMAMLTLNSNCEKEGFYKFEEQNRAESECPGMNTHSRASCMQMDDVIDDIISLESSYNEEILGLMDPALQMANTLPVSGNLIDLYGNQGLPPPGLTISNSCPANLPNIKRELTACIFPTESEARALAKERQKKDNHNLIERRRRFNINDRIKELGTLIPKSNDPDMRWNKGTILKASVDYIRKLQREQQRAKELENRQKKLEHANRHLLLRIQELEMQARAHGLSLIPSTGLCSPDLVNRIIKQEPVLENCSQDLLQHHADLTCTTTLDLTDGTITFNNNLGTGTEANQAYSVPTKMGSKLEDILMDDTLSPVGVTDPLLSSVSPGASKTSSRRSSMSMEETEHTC

[8] = biological target: T4, RNA-binding protein pos-1 (Caenorhabditis elegans, UniProt G5EF15); assay: inhibitors of POS-1/mex-3 RNA binding, dose response, biochemical, fluorescence polarization (AID 1964);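 further: purified POS-1 fused to maltose binding protein made in E. coli; potency of compounds blocking POS-1 binding to fluorescent RNA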
T4 sequence (G5EF15 whole entry): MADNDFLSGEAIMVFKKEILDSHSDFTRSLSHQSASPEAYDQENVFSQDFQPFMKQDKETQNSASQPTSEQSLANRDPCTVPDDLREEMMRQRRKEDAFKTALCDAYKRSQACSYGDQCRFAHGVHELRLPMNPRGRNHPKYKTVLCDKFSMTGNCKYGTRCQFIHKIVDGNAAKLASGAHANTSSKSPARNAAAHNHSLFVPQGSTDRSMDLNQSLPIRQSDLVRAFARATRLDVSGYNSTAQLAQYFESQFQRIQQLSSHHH

[9] = biological target: DNA (cytosine-5)-methyltransferase 1 (Homo sapiens, UniProt P26358); assay: DNMT1 methyltransferase inhibitors, confirmation, biochemical, fluorescent molecular beacon (AID 602386); assay type: functional
DNA (cytosine-5)-methyltransferase 1, sequence (P26358 whole entry): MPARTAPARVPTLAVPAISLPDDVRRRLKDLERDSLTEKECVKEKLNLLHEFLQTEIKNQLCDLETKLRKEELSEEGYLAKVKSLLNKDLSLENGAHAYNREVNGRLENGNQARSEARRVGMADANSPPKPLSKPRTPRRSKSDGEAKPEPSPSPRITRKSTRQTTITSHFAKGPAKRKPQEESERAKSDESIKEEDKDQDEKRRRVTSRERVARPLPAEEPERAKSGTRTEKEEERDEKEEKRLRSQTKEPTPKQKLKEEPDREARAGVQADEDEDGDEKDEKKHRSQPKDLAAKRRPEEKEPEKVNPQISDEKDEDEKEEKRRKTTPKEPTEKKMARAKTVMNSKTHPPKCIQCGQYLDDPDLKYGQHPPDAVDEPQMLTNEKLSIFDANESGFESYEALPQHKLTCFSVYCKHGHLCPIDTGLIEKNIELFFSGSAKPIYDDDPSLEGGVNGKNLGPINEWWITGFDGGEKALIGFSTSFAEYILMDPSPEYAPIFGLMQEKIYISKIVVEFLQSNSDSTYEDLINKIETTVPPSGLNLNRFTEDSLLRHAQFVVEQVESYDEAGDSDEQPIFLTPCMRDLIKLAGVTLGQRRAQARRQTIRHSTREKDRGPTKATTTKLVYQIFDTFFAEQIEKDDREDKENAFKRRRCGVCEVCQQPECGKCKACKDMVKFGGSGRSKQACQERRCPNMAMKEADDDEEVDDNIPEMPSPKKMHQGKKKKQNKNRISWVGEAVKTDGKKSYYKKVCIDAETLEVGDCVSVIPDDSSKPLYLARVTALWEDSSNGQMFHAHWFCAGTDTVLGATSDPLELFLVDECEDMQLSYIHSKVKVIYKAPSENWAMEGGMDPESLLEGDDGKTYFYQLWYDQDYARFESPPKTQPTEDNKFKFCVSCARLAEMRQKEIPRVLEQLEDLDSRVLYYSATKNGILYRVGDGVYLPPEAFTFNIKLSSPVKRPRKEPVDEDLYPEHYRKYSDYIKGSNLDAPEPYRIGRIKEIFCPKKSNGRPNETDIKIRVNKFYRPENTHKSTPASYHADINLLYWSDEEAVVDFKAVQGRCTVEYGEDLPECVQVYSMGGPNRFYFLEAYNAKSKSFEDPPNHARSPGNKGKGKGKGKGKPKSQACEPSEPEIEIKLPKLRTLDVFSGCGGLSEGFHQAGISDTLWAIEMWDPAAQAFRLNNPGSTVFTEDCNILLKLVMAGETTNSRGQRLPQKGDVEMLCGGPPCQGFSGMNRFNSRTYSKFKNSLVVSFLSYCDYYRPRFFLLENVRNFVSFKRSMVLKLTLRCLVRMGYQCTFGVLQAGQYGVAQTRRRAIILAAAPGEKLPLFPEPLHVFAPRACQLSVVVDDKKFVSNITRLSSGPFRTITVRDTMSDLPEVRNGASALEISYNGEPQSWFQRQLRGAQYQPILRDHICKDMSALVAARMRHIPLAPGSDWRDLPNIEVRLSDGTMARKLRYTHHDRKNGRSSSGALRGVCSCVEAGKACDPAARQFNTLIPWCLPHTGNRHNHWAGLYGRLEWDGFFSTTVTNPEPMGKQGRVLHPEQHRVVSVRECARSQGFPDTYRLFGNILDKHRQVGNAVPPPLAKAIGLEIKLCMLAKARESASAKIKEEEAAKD

[10] = biological target: T5, Zinc finger protein mex-5 (Caenorhabditis elegans, UniProt Q9XUB2); assay: MEX-5/TCR-2 RNA interaction inhibitors, dose response, biochemical, C. elegans, fluorescence polarization (AID 1960)
T5 sequence (Q9XUB2 whole entry): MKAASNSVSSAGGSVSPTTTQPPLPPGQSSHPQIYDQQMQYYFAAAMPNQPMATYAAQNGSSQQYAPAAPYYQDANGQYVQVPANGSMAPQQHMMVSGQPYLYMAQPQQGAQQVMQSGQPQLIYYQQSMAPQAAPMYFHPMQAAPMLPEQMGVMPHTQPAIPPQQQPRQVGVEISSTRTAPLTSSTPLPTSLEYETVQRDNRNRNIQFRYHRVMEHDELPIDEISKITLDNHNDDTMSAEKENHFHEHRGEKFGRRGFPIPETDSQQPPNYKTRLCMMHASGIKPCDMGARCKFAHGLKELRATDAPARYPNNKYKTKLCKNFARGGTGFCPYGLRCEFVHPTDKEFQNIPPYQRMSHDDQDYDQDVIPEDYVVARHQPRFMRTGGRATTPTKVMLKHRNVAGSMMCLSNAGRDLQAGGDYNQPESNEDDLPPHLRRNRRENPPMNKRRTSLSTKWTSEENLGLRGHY

[11] = biological target: T6, Mitochondrial peptide methionine sulfoxide reductase (Bos taurus, UniProt P54149); assay type: functional;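 further: absorbance read-out, biochemical high-throughput dose-response screen for MsrA inhibitors, confirmatory; recombinant bovine MsrA coupled to E. coli TrxB with NADPH and selenocystamine; potency is for inhibitors of MsrA activity on DMSO substrate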
T6 sequence (P54149 whole entry): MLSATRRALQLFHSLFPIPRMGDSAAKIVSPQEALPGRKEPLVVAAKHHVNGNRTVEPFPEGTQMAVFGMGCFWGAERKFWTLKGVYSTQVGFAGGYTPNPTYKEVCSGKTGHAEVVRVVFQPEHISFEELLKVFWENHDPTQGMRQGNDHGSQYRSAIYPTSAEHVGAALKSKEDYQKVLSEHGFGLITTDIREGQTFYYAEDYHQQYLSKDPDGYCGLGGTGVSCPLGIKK

[12] = biological target: T7, Probable nicotinate-nucleotide adenylyltransferase (Staphylococcus aureus (strain N315), UniProt P65502); assay type: functional, Staphylococcus aureus subsp. aureus N315;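 on IC50 Mean: confirmatory dose-response retesting of NadD inhibitor hits first found in an ultra-high-throughput screen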
T7 sequence (P65502 whole entry): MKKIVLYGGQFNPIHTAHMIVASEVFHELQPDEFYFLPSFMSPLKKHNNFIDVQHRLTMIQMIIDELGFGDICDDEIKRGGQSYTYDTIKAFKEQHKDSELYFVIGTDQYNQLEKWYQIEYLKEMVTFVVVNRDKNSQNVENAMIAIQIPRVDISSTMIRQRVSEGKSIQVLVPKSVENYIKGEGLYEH

[13] = biological target: T7, Probable nicotinate-nucleotide adenylyltransferase; assay type: functional, Staphylococcus aureus subsp. aureus N315; conditions: read-out: IC50_Mean
Nonstructural protein 1 = Nonstructural protein 1 (Influenza A virus, UniProt Q194T2); assay type: functional, Influenza A virus (A/California/07/2009(H1N1))
Nonstructural protein 1, sequence (Q194T2 whole entry): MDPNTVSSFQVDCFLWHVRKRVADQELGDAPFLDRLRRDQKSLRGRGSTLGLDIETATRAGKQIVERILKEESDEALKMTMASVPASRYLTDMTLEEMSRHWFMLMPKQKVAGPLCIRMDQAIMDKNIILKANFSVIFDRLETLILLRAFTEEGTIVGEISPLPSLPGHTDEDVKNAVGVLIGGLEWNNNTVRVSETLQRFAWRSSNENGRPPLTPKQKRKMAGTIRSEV

Aminopeptidase N = biological target: T8, Aminopeptidase N (Plasmodium falciparum FcB1/Columbia, UniProt O96935); assay: P. falciparum M1AAP inhibitors, biochemical, fluorogenic H-Leu-NHMec substrate, 1536-well (AID 1445); design: species or system Plasmodium falciparum 3D7, 3D7
T8 sequence (O96935 whole entry): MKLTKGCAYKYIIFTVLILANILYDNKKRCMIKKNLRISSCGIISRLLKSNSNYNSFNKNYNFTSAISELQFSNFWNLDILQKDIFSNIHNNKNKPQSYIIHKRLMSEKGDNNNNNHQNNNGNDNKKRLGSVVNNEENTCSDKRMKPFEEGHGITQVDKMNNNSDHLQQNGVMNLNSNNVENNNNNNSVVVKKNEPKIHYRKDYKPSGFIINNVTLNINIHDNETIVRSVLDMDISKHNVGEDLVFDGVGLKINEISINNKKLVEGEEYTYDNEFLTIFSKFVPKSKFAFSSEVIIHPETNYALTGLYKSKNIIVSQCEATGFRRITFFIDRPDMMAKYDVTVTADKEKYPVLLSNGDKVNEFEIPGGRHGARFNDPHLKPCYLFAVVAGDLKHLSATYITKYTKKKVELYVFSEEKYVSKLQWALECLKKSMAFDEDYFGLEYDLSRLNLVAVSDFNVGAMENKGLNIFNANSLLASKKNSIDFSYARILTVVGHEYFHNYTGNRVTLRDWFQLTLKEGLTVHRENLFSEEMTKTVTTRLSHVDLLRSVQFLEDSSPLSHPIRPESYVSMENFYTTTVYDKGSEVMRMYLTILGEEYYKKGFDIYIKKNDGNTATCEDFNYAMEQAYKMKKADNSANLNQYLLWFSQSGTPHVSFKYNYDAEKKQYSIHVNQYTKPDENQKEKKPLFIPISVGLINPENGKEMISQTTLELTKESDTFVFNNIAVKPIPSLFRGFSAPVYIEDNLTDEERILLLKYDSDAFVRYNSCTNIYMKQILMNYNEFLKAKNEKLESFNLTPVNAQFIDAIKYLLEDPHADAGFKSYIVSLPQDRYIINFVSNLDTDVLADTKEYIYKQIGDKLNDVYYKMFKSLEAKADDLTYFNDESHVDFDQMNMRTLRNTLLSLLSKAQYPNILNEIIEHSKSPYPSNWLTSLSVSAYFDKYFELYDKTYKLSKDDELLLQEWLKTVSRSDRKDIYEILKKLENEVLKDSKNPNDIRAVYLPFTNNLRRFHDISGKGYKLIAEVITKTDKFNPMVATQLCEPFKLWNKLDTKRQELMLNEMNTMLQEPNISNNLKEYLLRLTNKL

cells [14] = assay type: functional, cell-based
cells [15] = assay type: functional, cell-based; remark: listed apart in the source

## CC(=O)c1ccc(N2CCN(C(=O)c3ccc(Br)cc3)CC2)c(F)c1
[1]
  AC50: 0.182 µM (active)

## O=C(CSc1ccc2nnc(-c3ccccn3)n2n1)Nc1ccc2c(c1)OCO2
[2]
  AC50: 107 µM (active)

## O=C(Nc1nnc(C2=COCCO2)o1)c1ccc([N+](=O)[O-])cc1
[2]
  AC50: 101 µM (active)

## Cc1ccc2nc(-c3ccc(NC(=S)NC(=O)C(C)C)cc3)sc2c1
[3]
  CC50: > 40 µM (active)
[4]
  IC50: > 64.6 µM (inactive)
Melanocortin receptor 4
  IC50: > 64.6 µM (inactive)

## C#CCNc1c(C)c(C)nc2ncnn12
[5]
  IC50: 9.35 µM (active)
[6]
  IC50: 4.47 µM (active)

## CCCn1c2ccccc2c2cnn(CC(=O)NCCN(CC)CC)c(=O)c21
[5]
  IC50: 5.7 µM (active)
[6]
  IC50: 3.36 µM (active)

## CC1(C)CC(=O)C=C(c2ccc3ncccc3c2)C1
[1]
  AC50: 4.74 µM (active)

## Cc1cc(C(=O)CCl)c(C)n1CCc1ccc(F)cc1
[7]
  AC50: 4.25 µM (active)
[4]
  IC50: > 64.5 µM (inactive)
Melanocortin receptor 4
  IC50: > 64.5 µM (inactive)

## Cc1c(C(=O)O)cccc1-n1c(C)cc(/C=C2\C(=O)NC(=O)N(c3ccc4c(c3)OCO4)C2=O)c1C
[8]
  EC50: > 300 µM (not active)
[9]
  IC50: 18 µM (active)
[10]
  EC50: > 300 µM (not active)

## CCc1occc(=O)c1Oc1cc(NN2CCCCC2)c([N+](=O)[O-])cc1[N+](=O)[O-]
[11]
  IC50: 119 µM (inactive)

## O=C(Nc1ccc2nccnc2c1)c1cnccn1
[1]
  AC50: 6.04 µM (active)

## N#C/C(=C\Nc1ccccc1O)c1nc2ccccc2o1
[11]
  IC50: 155 µM (inactive)

## O=[N+]([O-])c1cc(NS(=O)(=O)c2ccc(Cl)nc2)ccc1Cl
[5]
  IC50: 2.4 µM (active)
[6]
  IC50: 3.35 µM (active)

## COc1ccc(Oc2c(OC)cc(NCc3ccc(CN)cc3)c3ncccc23)cc1
[12]
  IC50: 7.55 µM (active)
[13]
  IC50: 41.3 µM (active)
[9]
  IC50: 10.3 µM (active)

## O=[N+]([O-])c1cc(Br)cc(/C=N/c2ccc3c(c2)OCO3)c1O
[5]
  IC50: 9.12 µM (active)
[6]
  IC50: 10 µM (active)

## O=C(N/N=C/c1cc(Br)ccc1O)C(c1ccncc1)N1CCOCC1 (stereo not drawn)
[2]
  AC50: 78.4 µM (active)
Nonstructural protein 1
  IC50: 12.5 µM (active)
Aminopeptidase N
  IC50: 12 µM (active)
Cells [14]
  EC50: 189 µM (active)
Cells [15]
  EC50: > 350 µM (not active)

## C/C(CCC(=O)O)=N/Nc1ccc([N+](=O)[O-])cc1[N+](=O)[O-]
[11]
  IC50: 155 µM (inactive)
